One data set relates to human hepatocytes. Kind of data set: Hepatocytes stability assay (human hepatocytes). It counts as in vitro ADME. The settings on record: for CLint (μL/min/million cells): cryopreserved human hepatocytes (pool of 50 mixed gender), 1 μM test compound, 1×10^6 cell/mL, 37 degrees C; for Extraction Ratio (ER): human hepatocytes, scaled hepatic clearance divided by liver blood flow (well-stirred model, fu assumed unity). The procedure, abridged: (§1)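 Compound at 1 μM (0.1% DMSO) was incubated with cryopreserved pooled human hepatocytes, 1×10^6 cells/mL in Krebs-Henseleit buffer, at 37 °C, sampled up to 240 min. Parent depletion by LC-MS/MS; half-life from first-order decay gave CLint, scaled to hepatic clearance by well-stirred model (fu assumed 1) and extraction ratio.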

For the next data set, the system named is MDCK-MDR1 cells. Kind of data set: MDCK-MDR1 permeability assay. Format: in vitro ADME. To be noted: MDCK-MDR1 cells; for Efflux ratio (ER): Papp B→A divided by Papp A→B, 3 μM, 2 hours; for Papp A → B (10^−6 cm/s): test compound 3 μM, 2 hours at 37 degrees C, apical to basolateral. The procedure, abridged: (§2)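 Receiver and donor compartments were analysed by LC-MS/MS after a 2 h incubation at 37 °C of 3 μM compound in HBSS on MDCK-MDR1 monolayers, run in both directions with Lucifer Yellow (100 μM) as integrity marker. Apparent permeability came from translocation rate, insert area and initial concentration; B→A/A→B Papp gave the efflux ratio, alongside percent recovery.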

For data set [1], the target named is T1, human orexin-2 receptor (OX2R) (Homo sapiens, UniProt O43614).
T1 construct: expressed in transfected cells
T1 sequence (O43614 1-444): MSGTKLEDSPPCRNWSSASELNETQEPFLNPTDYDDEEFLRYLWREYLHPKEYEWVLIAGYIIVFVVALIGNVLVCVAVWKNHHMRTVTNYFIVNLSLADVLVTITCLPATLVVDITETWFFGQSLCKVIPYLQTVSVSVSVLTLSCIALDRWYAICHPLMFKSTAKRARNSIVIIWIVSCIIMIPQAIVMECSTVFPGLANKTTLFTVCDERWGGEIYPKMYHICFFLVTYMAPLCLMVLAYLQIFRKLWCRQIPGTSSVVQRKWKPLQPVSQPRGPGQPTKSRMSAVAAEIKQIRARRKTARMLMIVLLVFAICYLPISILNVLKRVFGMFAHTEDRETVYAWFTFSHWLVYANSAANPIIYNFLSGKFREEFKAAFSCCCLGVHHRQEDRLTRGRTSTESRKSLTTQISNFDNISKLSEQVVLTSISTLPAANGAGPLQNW
Kind of data set: Human OX2R IP1 assay. It counts as cell-based. To be noted: T-Rex CHO cells stably overexpressing human OX2R; IP1 accumulation; 1 hr at 37 degrees C; mean EC50. A digest of the protocol:
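T-Rex CHO cells stably expressing human OX2R, doxycycline-induced (1 μg/mL) overnight, treated with compounds 1 h at 37 °C in pH 7.4 buffer with 50 mM LiCl. IP1 accumulation read by HTRF competitive immunoassay after 1 h at room temperature; agonist EC50 reported as mean ± S.E.M.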

A short description of data set [2]: Hepatocytes stability assay (human hepatocytes). It counts as in vitro ADME. To be noted: both sexes, human, cryopreserved hepatocytes, cryopreserved human hepatocytes (pool of 50 mixed gender); 1 μM test compound; 1×10^6 cell/mL; 37 degrees C; read-out: CLint (μL/min/million cells). The procedure, abridged:
as §1

The next data set has as its system Sprague-Dawley rats. Description: Assessment of wake promotion in Sprague-Dawley rats (EEG/EMG). Format: in vivo, rat. The settings on record: male Sprague-Dawley rats; PO; 3 mpk; dosed at ZT5; 6-hour post-dose period. The method, then:
Wake promotion was assessed using electroencephalography (EEG) and electromyography (EMG) in adult male Sprague-Dawley rats. All rats (Charles River Laboratories, Raleigh, NC, USA) were intraperitoneally implanted with telemetry devices (F50-EEE, Data Sciences International Inc., MN, USA) under isoflurane anesthesia. For EEG, stainless steel screws were implanted over frontal cortex and parietal cortex, and reference screws were placed over cerebellum. Additionally, an electrode was placed in neck muscle for EMG. Rats were given carprofen post-surgery and underwent a 7 to 10-day recovery period. Rats habituated to the experimental room for 7 days and were maintained on a 12-hour light-dark cycle.
EEG and EMG data were recorded using the DSI telemetry system and Ponemah software (Data Sciences International Inc., MN, USA). Sleep-wake stages were scored both manually and with Somnivore, a supervised machine learning software platform, in 10 second epochs. Records were visually inspected as needed post-processing.
All test compounds were dissolved in 5% DMSO and suspended in 95% saline with 0.5% methylcellulose and 0.5% tween. […] Unless otherwise indicated, all compounds were dosed orally. Recordings for each rat were initiated immediately after dosing and lasted for 6 hours post-dose.
Two key endpoints include wakefulness time and cortical activation time. Wakefulness time is derived from the sleep-wake stage analysis. Cortical activation time is based on the duration in which frontal gamma oscillatory activity (30-100 Hz), a key feature of wakefulness, was elevated relative to a pre-treatment baseline. Mean cortical activation time was computed relative to vehicle treatment for the 6-hour post-dose period.

A further data set deals with MDR1. Description: MDCK-MDR1 permeability assay. Format: in vitro ADME. To be noted: dog, MDCK-MDR1, MDCK-MDR1 cells; for efflux ratio at 2 h, 3 μM: Papp B→A divided by Papp A→B, read-out: Efflux ratio (ER); for Papp A→B at 2 h, 3 μM: test compound 3 μM, 2 hours at 37 degrees C, apical to basolateral. A digest of the protocol:
as §2

Each structure is given as a SMILES string. Bounds are passed on as bounds.

As usually defined, the EC50 is the concentration needed to bring the measured effect to its halfway point. As usually defined, the Papp A→B is the apparent permeability from the apical to the basolateral side of a cell layer. Read a high Papp A→B as fast passage.

On to `Cc1ncnc2c1[C@H]1CC[C@H](CC1)OC[C@H]1[C@@H](NS(C)(=O)=O)CCCN1C(=O)CO2` (stereo in doubt) [Compound 72], for which, in the data set on human hepatocytes, the “CLint (μL/min/million cells)” value was under 1.9 μL/min/million cells and the “Extraction Ratio (ER)” value is on record as under 0.22. Moreover, in the data set with MDCK-MDR1 cells, the “Efflux ratio (ER)” value was 49 and the “Papp A → B (10^−6 cm/s)” value is recorded as <0.091 10^−6 cm/s. In addition, the EC50 in data set [1] was under 10 nM.

On to `O=C1COc2ccccc2[C@H]2CC[C@H](CC2)OCC2[C@@H](NS(=O)(=O)C3CCOC3)CCCN12` (stereo in doubt) [Compound 73], for which, in the data set on human hepatocytes, the “CLint (μL/min/million cells)” value was 21 μL/min/million cells and the “Extraction Ratio (ER)” value stood at 0.76. Besides, in the data set with MDCK-MDR1 cells, the “Efflux ratio (ER)” value was over 100 and the “Papp A → B (10^−6 cm/s)” value is on record as 0.23 10^−6 cm/s. The EC50 in data set [1] is under 10 nM.

Regarding `Cc1ccnc2c1[C@H]1CC[C@H](CC1)OCC1[C@@H](NS(=O)(=O)C3CCOC3)CCCN1C(=O)CO2` (stereo in doubt) [Compound 90], in the data set with human hepatocytes, the “CLint (μL/min/million cells)” value was 11 μL/min/million cells and the “Extraction Ratio (ER)” value is on record as 0.61. Further, in the data set on MDCK-MDR1 cells, the “Efflux ratio (ER)” value came out at 48 and the “Papp A → B (10^−6 cm/s)” value is recorded as 0.62 10^−6 cm/s. Also, the half-maximal effective concentration (EC50) in data set [1] was under 10 nM.

`Cc1ccnc2c1[C@H]1CC[C@H](CC1)OCC1[C@@H](NS(=O)(=O)C(C)C)CCN1C(=O)CO2` (stereo in doubt) [Compound 93]: in the data set with human hepatocytes, the “Extraction Ratio (ER)” value was determined as 0.75. The hepatocyte CLint at 1 μM in data set [2] was determined as 20 µL/min/1e6 cells. For the same compound, the “Mean cortical activation time (% vehicle treatment)” value in the data set on Sprague-Dawley rats was 138.14 % vehicle treatment. In the data set on MDR1, the efflux ratio at 2 h, 3 μM stood at 11 and the Papp A→B at 2 h, 3 μM is 4.7 ×10⁻⁶ cm/s.

For `CS(=O)(=O)N[C@H]1CCCN2C(=O)COc3ccc(O)cc3[C@H]3CC[C@H](CC3)OCC12` (stereo in doubt) [Compound 96], the “Extraction Ratio (ER)” value in the data set with human hepatocytes came out at 0.25. The hepatocyte CLint at 1 μM in data set [2] amounted to 2.3 µL/min/1e6 cells. Also, the “Mean cortical activation time (% vehicle treatment)” value in the data set on Sprague-Dawley rats is 74.48 % vehicle treatment. In the data set on MDR1, the efflux ratio at 2 h, 3 μM is 9.2 and the Papp A→B at 2 h, 3 μM stood at 0.53 ×10⁻⁶ cm/s.

For the compound `O=C1COc2ncncc2[C@H]2CC[C@H](CC2)OCC2[C@@H](NS(=O)(=O)C3CC3)CCCN12` (stereo in doubt) [Compound 97], the “Extraction Ratio (ER)” value in the data set with human hepatocytes is 0.43. In data set [2], the hepatocyte CLint at 1 μM stood at 5.2 µL/min/1e6 cells. Moreover, in the data set on Sprague-Dawley rats, the “Mean cortical activation time (% vehicle treatment)” value was 79.25 % vehicle treatment. Besides, in the data set with MDR1, the efflux ratio at 2 h, 3 μM came to 44 and the Papp A→B at 2 h, 3 μM was 0.42 ×10⁻⁶ cm/s.

Consider `CC(C)S(=O)(=O)N[C@H]1CCN2C(=O)COc3ncccc3[C@H]3CC[C@H](CC3)OCC12` (stereo in doubt) [Compound 101], for which, in the data set with human hepatocytes, the “Extraction Ratio (ER)” value came to 0.74. Besides, the hepatocyte CLint at 1 μM in data set [2] is 19 µL/min/1e6 cells. In the data set on Sprague-Dawley rats, the “Mean cortical activation time (% vehicle treatment)” value worked out at 109.66 % vehicle treatment. Besides, in the data set with MDR1, the efflux ratio at 2 h, 3 μM is 14 and the Papp A→B at 2 h, 3 μM worked out at 3.9 ×10⁻⁶ cm/s.

These data come from patent US12006330B2, “Substituted macrocyclic compounds and related methods of treatment” (Alkermes, Inc., priority 2020, dated 2024).
